According to patent publication US10010545B1, “Antibiotic compositions and methods of use” (University of South Florida, priority 2013, dated 2018):
Values after ≈ are worked out from the molar mass of the structure shown.

Tests used:
Pseudomonas aeruginosa = assay: Growth testing against ESKAPE pathogens: Pseudomonas aeruginosa; assay type: cell-based; parameters: key: Growth; X: No Growth
Description: (§1) Six analogs (FIG. 2) of the ciprofloxacin-N thiolated β-lactam were successfully synthesized. All these compounds were then tested against ESKAPE pathogens for bioactivity. The ESKAPE pathogens are a collection of six deadly superbugs, Enterococcus faecium, Staphylococcus aureus, Klebsiella pneumoniae, Acinetobacter baumannii, Pseudomonas aeruginosa, and Enterobacter species. […] G denotes growth and X denotes no growth in the tables.

Enterococcus faecium = assay: Growth testing against ESKAPE pathogens: Enterococcus faecium; assay type: cell-based; parameters: key: Growth; X: No Growth
Description: as §1

Acinetobacter baumannii = assay: Growth testing against ESKAPE pathogens: Acinetobacter baumannii; assay type: cell-based; parameters: key: Growth; X: No Growth
Description: as §1

Klebesiella pneumonia = assay: Growth testing against ESKAPE pathogens: Klebesiella pneumonia; assay type: cell-based, Klebsiella pneumoniae; parameters: key: Growth; X: No Growth
Description: as §1

Staphylococcus aureus = assay: Growth testing against ESKAPE pathogens: Staphylococcus aureus; assay type: cell-based; parameters: key to Activity against Staphylococcus aureus (growth observed): Growth; X: No Growth; details: for MIC: against S. aureus
Description: as §1

MRSA = assay: Growth inhibition against MRSA; assay type: cell-based; details: at 1 μg/ml against MRSA
Description: as §1
Synthesis of dual drugs for the antibacterial purposes is a huge arena of research and for the first time this was done with the N-thiolated β-lactams. Though both N-acyl ciprofloxacins and N-thiolated β-lactams have been independently studied, the attempt to combine them via a cleavable covalent bond was never done. This study has elaborated on the synthesis of six such analogs.

## CCC(C)SN1C(=O)C(OC(=O)c2cn(C3CC3)c3cc(N4CCN(C(C)=O)CC4)c(F)cc3c2=O)C1c1ccccc1Cl (centres unmarked) [Lactam 125]
Pseudomonas aeruginosa; 1 μg/ml
  Activity against Pseudomonas aeruginosa (growth observed): G
Pseudomonas aeruginosa; 2 μg/ml
  Activity against Pseudomonas aeruginosa (growth observed): G
Pseudomonas aeruginosa; 3 μg/ml
  Activity against Pseudomonas aeruginosa (growth observed): G
Pseudomonas aeruginosa; 4 μg/ml
  Activity against Pseudomonas aeruginosa (growth observed): G
Pseudomonas aeruginosa; 5 μg/ml
  Activity against Pseudomonas aeruginosa (growth observed): G
Pseudomonas aeruginosa; 6 μg/ml
  Activity against Pseudomonas aeruginosa (growth observed): G
Pseudomonas aeruginosa; 7 μg/ml
  Activity against Pseudomonas aeruginosa (growth observed): G
Pseudomonas aeruginosa; 8 μg/ml
  Activity against Pseudomonas aeruginosa (growth observed): G
Pseudomonas aeruginosa; 9 μg/ml
  Activity against Pseudomonas aeruginosa (growth observed): G
Pseudomonas aeruginosa; 10 μg/ml
  Activity against Pseudomonas aeruginosa (growth observed): G
Pseudomonas aeruginosa; 25 μg/ml
  Activity against Pseudomonas aeruginosa (growth observed): G
Enterococcus faecium; 1 μg/ml
  Activity against Enterococcus faecium (growth observed): G
Enterococcus faecium; 2 μg/ml
  Activity against Enterococcus faecium (growth observed): G
Enterococcus faecium; 3 μg/ml
  Activity against Enterococcus faecium (growth observed): G
Enterococcus faecium; 4 μg/ml
  Activity against Enterococcus faecium (growth observed): G
Enterococcus faecium; 5 μg/ml
  Activity against Enterococcus faecium (growth observed): G
Enterococcus faecium; 6 μg/ml
  Activity against Enterococcus faecium (growth observed): G
Enterococcus faecium; 7 μg/ml
  Activity against Enterococcus faecium (growth observed): G
Enterococcus faecium; 8 μg/ml
  Activity against Enterococcus faecium (growth observed): G
Enterococcus faecium; 9 μg/ml
  Activity against Enterococcus faecium (growth observed): G
Enterococcus faecium; 10 μg/ml
  Activity against Enterococcus faecium (growth observed): G
Enterococcus faecium; 25 μg/ml
  Activity against Enterococcus faecium (growth observed): G
Acinetobacter baumannii; 1 μg/ml
  Activity against Acinetobacter baumannii (growth observed): G
Acinetobacter baumannii; 2 μg/ml
  Activity against Acinetobacter baumannii (growth observed): G
Acinetobacter baumannii; 3 μg/ml
  Activity against Acinetobacter baumannii (growth observed): G
Acinetobacter baumannii; 4 μg/ml
  Activity against Acinetobacter baumannii (growth observed): G
Acinetobacter baumannii; 5 μg/ml
  Activity against Acinetobacter baumannii (growth observed): G
Acinetobacter baumannii; 6 μg/ml
  Activity against Acinetobacter baumannii (growth observed): G
Acinetobacter baumannii; 7 μg/ml
  Activity against Acinetobacter baumannii (growth observed): G
Acinetobacter baumannii; 8 μg/ml
  Activity against Acinetobacter baumannii (growth observed): G
Acinetobacter baumannii; 9 μg/ml
  Activity against Acinetobacter baumannii (growth observed): G
Acinetobacter baumannii; 10 μg/ml
  Activity against Acinetobacter baumannii (growth observed): G
Acinetobacter baumannii; 25 μg/ml
  Activity against Acinetobacter baumannii (growth observed): G
Klebesiella pneumonia; 1 μg/ml
  Activity against Klebesiella pneumonia (growth observed): G
Klebesiella pneumonia; 2 μg/ml
  Activity against Klebesiella pneumonia (growth observed): G
Klebesiella pneumonia; 3 μg/ml
  Activity against Klebesiella pneumonia (growth observed): G
Klebesiella pneumonia; 4 μg/ml
  Activity against Klebesiella pneumonia (growth observed): G
Klebesiella pneumonia; 5 μg/ml
  Activity against Klebesiella pneumonia (growth observed): G
Klebesiella pneumonia; 6 μg/ml
  Activity against Klebesiella pneumonia (growth observed): G
Klebesiella pneumonia; 7 μg/ml
  Activity against Klebesiella pneumonia (growth observed): G
Klebesiella pneumonia; 8 μg/ml
  Activity against Klebesiella pneumonia (growth observed): G
Klebesiella pneumonia; 9 μg/ml
  Activity against Klebesiella pneumonia (growth observed): G
Klebesiella pneumonia; 10 μg/ml
  Activity against Klebesiella pneumonia (growth observed): G
Klebesiella pneumonia; 25 μg/ml
  Activity against Klebesiella pneumonia (growth observed): G
Staphylococcus aureus; 1 μg/ml
  Activity against Staphylococcus aureus (growth observed): X
Staphylococcus aureus; 2 μg/ml
  Activity against Staphylococcus aureus (growth observed): X
Staphylococcus aureus; 3 μg/ml
  Activity against Staphylococcus aureus (growth observed): X
Staphylococcus aureus; 4 μg/ml
  Activity against Staphylococcus aureus (growth observed): X
Staphylococcus aureus; 5 μg/ml
  Activity against Staphylococcus aureus (growth observed): X
Staphylococcus aureus; 6 μg/ml
  Activity against Staphylococcus aureus (growth observed): X
Staphylococcus aureus; 7 μg/ml
  Activity against Staphylococcus aureus (growth observed): X
Staphylococcus aureus; 8 μg/ml
  Activity against Staphylococcus aureus (growth observed): X
Staphylococcus aureus; 9 μg/ml
  Activity against Staphylococcus aureus (growth observed): X
Staphylococcus aureus; 10 μg/ml
  Activity against Staphylococcus aureus (growth observed): X
Staphylococcus aureus; 25 μg/ml
  Activity against Staphylococcus aureus (growth observed): X
Staphylococcus aureus
  MIC: 1 µg/mL (≈ 1.56 µM)
MRSA
  growth inhibition: complete growth inhibition

## CCCCCCC(=O)N1CCN(c2cc3c(cc2F)c(=O)c(C(=O)OC2C(=O)N(SC(C)CC)C2c2ccccc2Cl)cn3C2CC2)CC1 (centres unmarked) [Lactam 130]
Pseudomonas aeruginosa; 1 μg/ml
  Activity against Pseudomonas aeruginosa (growth observed): G
Pseudomonas aeruginosa; 2 μg/ml
  Activity against Pseudomonas aeruginosa (growth observed): G
Pseudomonas aeruginosa; 3 μg/ml
  Activity against Pseudomonas aeruginosa (growth observed): G
Pseudomonas aeruginosa; 4 μg/ml
  Activity against Pseudomonas aeruginosa (growth observed): G
Pseudomonas aeruginosa; 5 μg/ml
  Activity against Pseudomonas aeruginosa (growth observed): G
Pseudomonas aeruginosa; 6 μg/ml
  Activity against Pseudomonas aeruginosa (growth observed): G
Pseudomonas aeruginosa; 7 μg/ml
  Activity against Pseudomonas aeruginosa (growth observed): G
Pseudomonas aeruginosa; 8 μg/ml
  Activity against Pseudomonas aeruginosa (growth observed): G
Pseudomonas aeruginosa; 9 μg/ml
  Activity against Pseudomonas aeruginosa (growth observed): G
Pseudomonas aeruginosa; 10 μg/ml
  Activity against Pseudomonas aeruginosa (growth observed): G
Pseudomonas aeruginosa; 25 μg/ml
  Activity against Pseudomonas aeruginosa (growth observed): G
Enterococcus faecium; 1 μg/ml
  Activity against Enterococcus faecium (growth observed): G
Enterococcus faecium; 2 μg/ml
  Activity against Enterococcus faecium (growth observed): G
Enterococcus faecium; 3 μg/ml
  Activity against Enterococcus faecium (growth observed): G
Enterococcus faecium; 4 μg/ml
  Activity against Enterococcus faecium (growth observed): G
Enterococcus faecium; 5 μg/ml
  Activity against Enterococcus faecium (growth observed): G
Enterococcus faecium; 6 μg/ml
  Activity against Enterococcus faecium (growth observed): G
Enterococcus faecium; 7 μg/ml
  Activity against Enterococcus faecium (growth observed): G
Enterococcus faecium; 8 μg/ml
  Activity against Enterococcus faecium (growth observed): G
Enterococcus faecium; 9 μg/ml
  Activity against Enterococcus faecium (growth observed): G
Enterococcus faecium; 10 μg/ml
  Activity against Enterococcus faecium (growth observed): G
Enterococcus faecium; 25 μg/ml
  Activity against Enterococcus faecium (growth observed): G
Acinetobacter baumannii; 1 μg/ml
  Activity against Acinetobacter baumannii (growth observed): G
Acinetobacter baumannii; 2 μg/ml
  Activity against Acinetobacter baumannii (growth observed): G
Acinetobacter baumannii; 3 μg/ml
  Activity against Acinetobacter baumannii (growth observed): G
Acinetobacter baumannii; 4 μg/ml
  Activity against Acinetobacter baumannii (growth observed): G
Acinetobacter baumannii; 5 μg/ml
  Activity against Acinetobacter baumannii (growth observed): G
Acinetobacter baumannii; 6 μg/ml
  Activity against Acinetobacter baumannii (growth observed): G
Acinetobacter baumannii; 7 μg/ml
  Activity against Acinetobacter baumannii (growth observed): G
Acinetobacter baumannii; 8 μg/ml
  Activity against Acinetobacter baumannii (growth observed): G
Acinetobacter baumannii; 9 μg/ml
  Activity against Acinetobacter baumannii (growth observed): G
Acinetobacter baumannii; 10 μg/ml
  Activity against Acinetobacter baumannii (growth observed): G
Acinetobacter baumannii; 25 μg/ml
  Activity against Acinetobacter baumannii (growth observed): G
Klebesiella pneumonia; 1 μg/ml
  Activity against Klebesiella pneumonia (growth observed): G
Klebesiella pneumonia; 2 μg/ml
  Activity against Klebesiella pneumonia (growth observed): G
Klebesiella pneumonia; 3 μg/ml
  Activity against Klebesiella pneumonia (growth observed): G
Klebesiella pneumonia; 4 μg/ml
  Activity against Klebesiella pneumonia (growth observed): G
Klebesiella pneumonia; 5 μg/ml
  Activity against Klebesiella pneumonia (growth observed): G
Klebesiella pneumonia; 6 μg/ml
  Activity against Klebesiella pneumonia (growth observed): G
Klebesiella pneumonia; 7 μg/ml
  Activity against Klebesiella pneumonia (growth observed): G
Klebesiella pneumonia; 8 μg/ml
  Activity against Klebesiella pneumonia (growth observed): G
Klebesiella pneumonia; 9 μg/ml
  Activity against Klebesiella pneumonia (growth observed): G
Klebesiella pneumonia; 10 μg/ml
  Activity against Klebesiella pneumonia (growth observed): G
Klebesiella pneumonia; 25 μg/ml
  Activity against Klebesiella pneumonia (growth observed): G
Staphylococcus aureus; 1 μg/ml
  Activity against Staphylococcus aureus (growth observed): G
Staphylococcus aureus; 2 μg/ml
  Activity against Staphylococcus aureus (growth observed): G
Staphylococcus aureus; 3 μg/ml
  Activity against Staphylococcus aureus (growth observed): G
Staphylococcus aureus; 4 μg/ml
  Activity against Staphylococcus aureus (growth observed): G
Staphylococcus aureus; 5 μg/ml
  Activity against Staphylococcus aureus (growth observed): G
Staphylococcus aureus; 6 μg/ml
  Activity against Staphylococcus aureus (growth observed): G
Staphylococcus aureus; 7 μg/ml
  Activity against Staphylococcus aureus (growth observed): G
Staphylococcus aureus; 8 μg/ml
  Activity against Staphylococcus aureus (growth observed): G
Staphylococcus aureus; 9 μg/ml
  Activity against Staphylococcus aureus (growth observed): G
Staphylococcus aureus; 10 μg/ml
  Activity against Staphylococcus aureus (growth observed): X
Staphylococcus aureus; 25 μg/ml
  Activity against Staphylococcus aureus (growth observed): X
Staphylococcus aureus
  MIC: 10 µg/mL (≈ 14.1 µM)
